Tested on: HeLa229
Experiment: HeLa229 cytotoxicity assay (MTT readout)
Format: cell-based
Conditions: 72 hrs
Procedure: We tested IL-20 in a HeLa229 cytotoxicity assay to measure the ability of IL-20 to prevent cells from growing during normal growth conditions. We used MTT reagent (Promega, Madison, WI USA) as our detection and readout for this inhibition assay. Procedure of a cytotoxicity assay:
Day 1—Plate cells out in complete growth media (with serum) at 5000 cells/well in a 96 well format and let them incubate overnight at 37 degrees and 5% CO2.
Day 2—Dump off media and add a dose response of appropriate ligands in complete growth media (IL-20, zmda1, and MDA7 at 10, 100, and 1000 ng/ml.), along with a positive control retinoic acid (100 uM) in complete growth media, while leaving some wells in complete growth media as controls of how the cells normally grow under normal conditions. Put the cells in incubator and let the assay go for 72 hrs.
Day 5—Add 15 ul/well of MTT reagent, let cells inc. for 4 hrs., then add 100 ul of stop solution, let cells inc. for an additional 1 hr., then read the plate on a multilabel counter (Victor2, PerkinElmer Life Sciences Inc., Boston). The MTT protocol will give you two readings, one at a 650 wavelength (background) and one at a 572 wavelength. Subtract the 650 reading from the 572 reading to get your actual output. These numbers are averaged and converted to a % inhibition value.

In the case of `CC1=C(/C=C/C(C)=C/C=C/C(C)=C/C(=O)O)C(C)(C)CCC1` [Retnoic Acid, retinoic acid], the inhibition at 100 µM (Homo sapiens, HeLa 229, HeLa229 cells, retinoic acid 100 uM (positive control), read-out: inhibition of growth) is reported as 53%.

B1: IL-20: Interleukin-20 (formally called Zcyto10); human polypeptide of 176 amino acids, SEQ ID NO:2 (protein, listed as Homo sapiens)
chain: MKASSLAFSLLSAAFYLLWTPSTGLKTLNLGSCVIATNLQEIRNGFSDIRGSVQAKDGNIDIRILRRTESLQDTKPANRCCLLRHLLRLYLDRVFKNYQTPDHYTLRKISSLANSFLTIKKDLRLCHAHMTCHCGEEAMKKYSQILSHFEKLEPQAAVVKALGELDILLQWMEETE
With B1 the “maximal inhibition of growth” value (HeLa229 cells, IL-20 dose response 10, 100, and 1000 ng/ml) was 20%.
